From ChEMBL document CHEMBL1139625, “Synthesis and binding affinity of novel 3-aminoethyl-1-tetralones, potential atypical antipsychotics” (Bioorg Med Chem Lett, 2005)

What was measured:
[1] = Inhibitory constant towards dopamine D2 receptor was determined
[2] = Ratio of inhibitory constant for 5-hydroxytryptamine 2A receptor to that of dopamine receptor D2
[3] = Inhibitory constant towards 5-hydroxytryptamine 2A receptor (5-HT2A)
[4] = Inhibitory constant towards 5-hydroxytryptamine 2C receptor (5-HT2C)

Structure (SMILES)	Log Ki [1]	Ratio [2]	Log Ki [3]	Log Ki [4]
O=C(CCCN1CCC(O)(c2ccc(Cl)cc2)CC1)c1ccc(F)cc1 [HALOPERIDOL]	-9.22			
CN1CCN(C2=Nc3cc(Cl)ccc3Nc3ccccc32)CC1 [CLOZAPINE]	-6.65			
O=C1NC(=O)C2(CCN(CCC3CC(=O)c4ccccc4C3)CC2)N1 (centres undefined)	< -5		-6.15	-7.05
COc1ccc2c(c1)C(=O)CC(CCN1CCN(c3ccccc3OC)CC1)C2 (centres undefined)	-6.55	1.01	-6.65	-5.72
O=C1CC(CCN2CCN(c3ccccn3)CC2)Cc2ccccc21 (centres undefined)	< -5		-6.54	< -5
COc1ccc2c(c1)C(=O)CC(CCN1CCN(c3ccccn3)CC1)C2 (centres undefined)	< -5		-6.33	-5.81
COc1ccc2c(c1)C(=O)CC(CCN1CCC3(CC1)NCNC3=O)C2 (centres undefined)	< -5		< -5	< -5
COc1ccc2c(c1)C(=O)CC(CCN1CCC3(CC1)NC(=O)NC3=O)C2 (centres undefined)	< -5		-5.98	-6.9
O=C1CC(CCN2CCC3(CC2)NCNC3=O)Cc2ccccc21 (centres undefined)	< -5		< -5	< -5

Next, values leading:

Log Ki [1]	Ratio [2]	Log Ki [3]	Log Ki [4]	Structure (SMILES)
	1.18	-8.02		COc1cc2c(cc1OC)C(=O)CC(CN1CCC(c3noc4cc(F)ccc34)CC1)C2 (centres undefined)
	1.16	-7.34	-5.79	COc1ccc2c(c1)CC(CN1CCC(c3noc4cc(F)ccc34)CC1)CC2=O (centres undefined)
-6.97	0.95	-6.59	-6.35	COc1ccccc1N1CCN(CCC2CC(=O)c3ccccc3C2)CC1 (centres undefined)
-5.98	1.38	-8.29	-7.06	O=C1CC(CCN2CCC(c3noc4cc(F)ccc34)CC2)Cc2ccccc21 (centres undefined)
	1.18	-8.57	-6.89	O=C1CC(CN2CCC(c3noc4cc(F)ccc34)CC2)Cc2ccccc21 (centres undefined)
-7.04	1.17	-8.23	-6.89	COc1ccc2c(c1)C(=O)CC(CCN1CCC(c3noc4cc(F)ccc34)CC1)C2 (centres undefined)
